Experimental data published in ChEMBL document CHEMBL1149504, “Design and synthesis of substituted quinolines as novel and selective melanin concentrating hormone antagonists as anti-obesity agents” (Bioorg Med Chem Lett, 2006).

Columns and labels:
[1] = biological target: Melanin-concentrating hormone receptor 1 (Homo sapiens, UniProt Q99705); assay: Binding affinity to MCHR1 by radioligand binding assay
[2] = biological target: T1, 5-hydroxytryptamine receptor 2C (Homo sapiens, UniProt P28335); assay: Displacement of [3H]mesulergine from 5HT2C receptor
T1 sequence (P28335 whole entry): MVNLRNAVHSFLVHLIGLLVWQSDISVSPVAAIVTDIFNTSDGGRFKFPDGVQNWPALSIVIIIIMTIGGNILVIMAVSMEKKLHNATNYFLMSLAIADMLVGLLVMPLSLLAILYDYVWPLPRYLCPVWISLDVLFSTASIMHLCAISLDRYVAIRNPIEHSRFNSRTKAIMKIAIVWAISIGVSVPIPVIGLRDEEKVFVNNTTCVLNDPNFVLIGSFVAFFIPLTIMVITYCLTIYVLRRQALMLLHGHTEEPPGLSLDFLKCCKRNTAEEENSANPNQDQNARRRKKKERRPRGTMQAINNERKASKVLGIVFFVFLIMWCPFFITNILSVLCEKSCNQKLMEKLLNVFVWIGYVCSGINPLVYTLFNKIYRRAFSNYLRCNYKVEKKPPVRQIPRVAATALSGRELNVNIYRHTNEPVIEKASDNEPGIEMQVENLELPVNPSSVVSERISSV

Chain of Melanin-concentrating hormone receptor 1 (Q99705 whole entry): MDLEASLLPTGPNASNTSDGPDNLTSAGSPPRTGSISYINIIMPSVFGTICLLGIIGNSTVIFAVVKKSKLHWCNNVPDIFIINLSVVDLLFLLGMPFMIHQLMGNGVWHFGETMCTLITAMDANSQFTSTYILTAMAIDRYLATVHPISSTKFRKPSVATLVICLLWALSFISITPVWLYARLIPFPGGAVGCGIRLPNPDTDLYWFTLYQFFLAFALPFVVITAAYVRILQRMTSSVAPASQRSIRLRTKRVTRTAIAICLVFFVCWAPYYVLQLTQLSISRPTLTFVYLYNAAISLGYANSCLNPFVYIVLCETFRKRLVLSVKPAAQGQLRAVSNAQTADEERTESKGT

Row | Compound | Ki [1] [µM] | IC50 [2] [µM]
1 | CN(Cc1cccc2cc(CN3CCCCC3)cnc12)C(=O)c1ccc(-c2ccc(F)cc2)cc1 | 0.031 | 4.19
2 | CCN(CC)Cc1cnc2c(CNC(=O)c3ccc(-c4ccc(F)cc4)cc3)cccc2c1 | 0.102 | 4.16
3 | O=C(NCc1cccc2cc(CN3CC[C@H](O)C3)cnc12)c1ccc(-c2ccc(F)cc2)cc1 | 0.142 | 3.59
4 | O=C(NCc1cccc2cc(CN3CCC(O)CC3)cnc12)c1ccc(-c2ccc(F)cc2)nc1 | 0.803 | 14.6
5 | O=C(NCc1cccc2cc(CN3CC[C@H](O)C3)cnc12)c1ccc(-c2ccc(F)cc2)nc1 | 1.15 | 16.5
6 | O=C(NCc1cccc2cc(CN3CCOCC3)cnc12)c1ccc(-c2ccc(F)cc2)cc1 | 1.41 | 7.47
7 | CN(C)Cc1cnc2c(Cn3cnc4cc(-c5ccc(Cl)cc5)sc4c3=O)cccc2c1 | 0.197 | 1.31
8 | CN1CCN(Cc2cnc3c(Cn4cnc5cc(-c6ccc(Cl)cc6)sc5c4=O)cccc3c2)CC1 | 0.11 | > 100
9 | CN(CC(=O)N(C)C)Cc1cnc2c(Cn3cnc4cc(-c5ccc(Cl)cc5)sc4c3=O)cccc2c1 | 0.136 | > 100
10 | CN1CCN(Cc2cnc3c(CNC(=O)c4ccc(-c5ccc(F)cc5)nc4)cccc3c2)CC1 | 3.54 | 20.2
11 | O=C(NCc1cccc2cc(CN3CCC(O)CC3)cnc12)c1ccc(-c2ccc(F)cc2)cc1 | 0.195 | 2.81
12 | O=c1c2sc(-c3ccc(Cl)cc3)cc2ncn1Cc1cccc2cc(CN3CCC(O)CC3)cnc12 | 0.051 | > 100
13 | CCN(CC)Cc1cnc2c(Cn3cnc4cc(-c5ccc(Cl)cc5)sc4c3=O)cccc2c1 | 0.126 | 25.2
14 | O=C(NCc1cccc2cc(CN3CCOCC3)cnc12)c1ccc(-c2ccc(F)cc2)nc1 | 20.1 | > 100
15 | CN(C)Cc1cnc2c(CNC(=O)c3ccc(-c4ccc(F)cc4)nc3)cccc2c1 | 0.414 | 10.3
16 | CCN(CC)Cc1cnc2c(CNC(=O)c3ccc(-c4ccc(F)cc4)nc3)cccc2c1 | 0.31 | 14.1
17 | O=c1c2sc(-c3ccc(Cl)cc3)cc2ncn1Cc1cccc2cc(CN3CCCC3)cnc12 | 0.091 | > 100
18 | CS(=O)(=O)C1CCN(Cc2cnc3c(CNC(=O)c4ccc(-c5ccc(F)cc5)cc4)cccc3c2)CC1 | 0.31 | > 100
19 | CS(=O)(=O)N1CCN(Cc2cnc3c(Cn4cnc5cc(-c6ccc(Cl)cc6)sc5c4=O)cccc3c2)CC1 | 0.773 | > 100
